# Tests used:
# [1] = system: tumor cells; details: Karlsson et al. 2013; Yang et al. 2020; cited from earlier work
# [2] = system: CART19-BCL-2(WT); experiment: Cytotoxicity of doxorubicin on CART cells, 24 hours; type: cell-based, human; details: doxorubicin 300 and 1000 nM
# Source text: FIGS. 26A-26H illustrate the finding that increased BCL-2 expression in T cells from CART apheretic products is associated with positive clinical outcomes in lymphoma patients at long term. FIG. 26A is a schematic description of the approach taken to investigate the relationship between the level of BCL-2 and CART's clinical response. RNA was extracted from T cells from apheretic products of 38 lymphoma patients who received CART19 immunotherapy (CTL019, i.e., tisagenleucleucel) in the clinical trial (NCT02030834). Next, BCL-2 mRNA expression was quantified via the nCounter analysis system (NanoString Technologies, Inc, Seattle, WA). FIG. 26B is a volcano plot showing differential gene expression in T cells based on best overall response (CR or NR). […] EGFR: Epidermal growth factor receptor.
# Nevertheless, to further investigate the safety profile of this approach, whether CART19-BCL-2(WT) cells are still sensitive to conventional cytotoxic drugs such as chemotherapy (e.g., doxorubicin) was assessed. […] Furthermore, to enhance the safety profile of CART19-BCL-2(WT) cells, a CART suicide system (Paszkiewicz, et al., The Journal of clinical investigation 2016; 126(11):4262-72) was employed by expressing truncated EGFR into CART19-BCL-2(WT).
# [3] = system: CART19; experiment: AZD5991 CART cell toxicity, co-culture with irradiated NALM6 for 120 hours; type: cell-based, human; details: 110-10000 nM, E:T 0.25:1
# Protocol: To quantify CART cell toxicity, CART19 was co-cultured with irradiated NALM6 in the presence of either vehicle (DMSO), venetoclax or AZD5991 for 120 hours. After co-culture, samples were stained with anti-CD3 antibody and anti-CAR19 idiotype antibody to distinguish between effector (T cells) and target cells (NALM6). Survival of CART cell were then measured by using flow cytometry. E:T ratio=0.25:1. Concentrations of venetoclax and AZD5991: 110 nM, 330 nM, 1100 nM, 3300 nM and 10000 nM. […] All data represent mean±SD. **P<0.005, *P<0.05. ns: not significant.
# To investigate this hypothesis, the expansion and persistence of CART19 cells in the peripheral blood of NSG mice treated with CART19 plus venetoclax or CART19 alone was analyzed using flow cytometry. […] To test whether prolonged exposure to venetoclax leads to CART cell toxicity, an in vitro venetoclax toxicity assay was performed using CART cells manufactured from 8 different T cell donors. […] Of note, the level of toxicity to CART cells varied among the different T cell donors, likely due to different apoptotic priming statuses at baseline. […] In order to discern whether the reduced survival was due to increased apoptosis or reduction of proliferation, the caspase 3/7 activity in CART19 was assessed in the presence or absence of venetoclax. […]
# [4] = system: MINO, Z-138, MAVER, OCI-Ly18, SU-DHL-4, NALM6, MOLM-14; experiment: CART plus venetoclax or AZD5991 tumor killing, 48 hours; type: cell-based; details: AZD5991 125 nM, with CART19 (CART33 for MOLM-14)
# Protocol: To investigate whether inhibition of MCL-1, another key anti-apoptotic regulator, lead to enhancement of tumor killing, various B-cell malignant (luciferase+) cell lines were co-cultured with either vehicle (DMSO), venetoclax or AZD5991 in the presence of CART19 for 48 hours and change of luminescence intensity was measured to quantify the tumor killing. To test the combination effect of CART/drug in different tumor types, AML cell lines (luciferase positive MOLM-14) were co-cultured with CART33 in the presence of either venetoclax or AZD5991. Tumor killing (%) was calculated using the formula: (sample−maximal tumor growth)/(lysis control−maximal tumor growth)×100. MINO (Venetoclax: 1 nM, AZD5991: 125 nM), Z-138 (Venetoclax: 25 nM, AZD5991: 125 nM), MAVER (Venetoclax: 25 nM, AZD5991: 125 nM), OCI-Ly18 (Venetoclax: 10 nM, AZD5991: 125 nM), SU-DHL-4 (Venetoclax: 500 nM, AZD5991: 125 nM), NALM6 (Venetoclax: 500 nM, AZD5991: 125 nM), MOLM-14 (Venetoclax: 125 nM, AZD5991: 125 nM). […] CART19: anti-CD19 CAR T cell.
# CART19 cells were co-cultured with either vehicle (DMSO) or venetoclax and cytotoxicity was measured at 48 hours. […] This effect was further confirmed using primary NHL cells (MCL) (FIG. 1D). […]
# [5] = system: NALM6; experiment: Targeted pro-apoptotic small molecule screening with CART19 against NALM6, killing by luminescence at 48 hours; details: drug 100 and 1000 nM with CART19
# Protocol: Killing of NALM6 cells was quantified at 48 hours by luminescence. Drug screening of pro-apoptotic small molecules was performed with two concentrations (100 and 1000 nM). […] Two concentrations of 29 drugs were used (100 nM and 1000 nM). Killing of NALM6 cells was assessed at 48 hours by luminescence. […] UTD: untransduced T cells; CART19: anti-CD19 CAR T cell; MCL: mantle cell lymphoma; E:T=ratio of effector to target; IAP: Inhibition of apoptosis protein.
# CART19 and NALM6 (luciferase+) cells were seeded at a ratio of 0.08E:1T (i.e., 600 CART: 7000 NALM6) per well in 25 μl of growth medium (RPMI1640+10% FBS+1% Pen-strep+1% glutamine) of 384-well Corning 3570 microplate using a Multidrop™ Combi Reagent Dispenser (Thermo Scientific). Following cell seeding, drugs (50 nL) were transferred to assay plates using a 50 nL slotted pin tool (V&P Scientific) and a JANUS Automated Workstation (Perkin Elmer). Compounds/drugs were added to a final concentration of 1 μM in 0.2% DMSO. Columns 1 and 23 were treated with 0.2% DMSO (negative control). […] Luminescence was measured on an EnVision Xcite Multilabel Plate Reader (PerkinElmer), using the ultrasensitive luminescence measurement technology.
# In order to screen pro-apoptotic small molecules that can enhance CART cell killing, a targeted screening assay was performed. […] Tumor killing was measured by luminescence at 48 hours.
structure (smiles),measurement,setting,value
CN(C)CC[C@H](CSc1ccccc1)Nc1ccc(S(=O)(=O)NC(=O)c2ccc(N3CCN(Cc4ccccc4-c4ccc(Cl)cc4)CC3)cc2)cc1[N+](=O)[O-] [ABT737],CART-mediated tumor killing (literature),[1],significant increase of CART-mediated tumor killing
COc1cccc2c1C(=O)c1c(O)c3c(c(O)c1C2=O)C[C@@](O)(C(=O)CO)C[C@@H]3O[C@H]1C[C@H](N)[C@H](O)[C@H](C)O1 [doxorubicin],Elimination of BCL-2-expressing CART cells,[2],fast and effective elimination of CART19-BCL-2(WT)
Cc1c2c(nn1C)CSCc1cc(n(C)n1)CSc1cc(c3ccccc3c1)OCCCc1c(C(=O)O)n(C)c3c-2c(Cl)ccc13 [AZD5991],CART cell toxicity (CART survival),[3],induces severe CART cell toxicity
same,Enhancement of tumor killing in presence of CART,[4],"venetoclax, but not AZD5991 (MCL-1 inhibitor), leads to enhancement of tumor killing"
CC[C@H](NC(=O)[C@H](C)NC)C(=O)N1C[C@@H](O)C[C@H]1Cc1c(-c2[nH]c3cc(F)ccc3c2C[C@@H]2C[C@H](O)CN2C(=O)[C@H](CC)NC(=O)[C@H](C)NC)[nH]c2cc(F)ccc12 [birinapant],Enhancement of CART19 killing / CART cell cytotoxicity,[5],increased CART cell cytotoxicity

# Reference: patent publication US20240335539A1, “MODULATION OF BCL-2 TO ENHANCE CHIMERIC ANTIGEN RECEPTOR CANCER IMMUNOTHERAPY EFFICACY” (The Trustees of the University of Pennsylvania, priority 2021, published 2024)
